Results from paper PMC11603275, “Synthesis and Antimicrobial Evaluation of New 1,2,4-Triazolo[1,5-a]pyrimidine-Based Derivatives as Dual Inhibitors of Bacterial DNA Gyrase and DHFR” (ACS Omega, 2024).
In brackets after ≈: the same amount, converted by molar mass. Where two headings read alike, the source gives them in different places.

Key:
S. aureus [1] = assay: Modified disk diffusion, inhibition zone; settings: S. aureus (G+)
P. aeruginosa [2] = assay: Modified disk diffusion, inhibition zone; settings: P. aeruginosa (G-)
B. subtilis [3] = assay: Modified disk diffusion, inhibition zone; settings: B. subtilis (G+)
E. coli [4] = assay: Modified disk diffusion, inhibition zone; settings: E. coli (G-)
A. flavus [5] = assay: Modified disk diffusion, inhibition zone; settings: A. flavus (fungi)
C. albicans [6] = assay: Modified disk diffusion, inhibition zone; settings: C. albicans (fungi)
B. subtilis [7] = assay: MIC assay, 2-fold serial dilution in 96-well microtiter plate; assay type: cell-based, Bacillus subtilis (ATCC 6051); settings: for MIC: Bacillus subtilis, read-out: MIC
Experimental: (§1) The outcomes of this in vitro assay test align with the results of the antimicrobial sensitivity test.
(§2) Appendix A (Supplementary File) provides experimental details.
(§3) In 96-well microtiter plates and […] of fresh bacterial culture of a single McFarland unit overnight, a double serial dilution of each compound […] in sterile standard saline were prepared to every single source well. […] The plates were incubated at 37 °C overnight. As an indicator of bacterial growth, […] of p-iodonitrotetrazolium violet (INT) was added to each well and incubated at 37 °C for 30 min. […] The colorless tetrazolidium salt acts as an electron accepter and is reduced to a red colored formazan product by biological activity organisms. Where bacterial growth was inhibited, the solution in the well remained clear after incubation with INT.

P. aeruginosa [8] = assay: Minimum bactericidal concentration (MBC) assay; assay type: cell-based, Pseudomonas aeuroginosa
Excerpt: (§4) The MBC differs from the MIC. […] Unlike the MBC, which leads to mortality, the MIC hinders bacterial growth without causing death.[41] The common expression for MBC is MBC50, signifying the antibiotic concentration that eliminates 50% of the initial bacterial population.[42]

S. aureus [9] = assay: MIC assay, 2-fold serial dilution in 96-well microtiter plate; assay type: cell-based, Staphylococcus aureus (ATCC 12600); settings: Staphylococcus aureus, read-out: MIC
Experimental: as §1, §2, §3

C. albicans [10] = assay: Antifungal MIC assay, 2-fold serial dilution; assay type: cell-based, Candida albicans; settings: Candida albicans, read-out: MIC
S. aureus [11] = assay: Minimum bactericidal concentration (MBC) assay; assay type: cell-based, Staphylococcus aureus; settings: Staphylococcus aureus, read-out: MBC
Excerpt: as §4

E. coli DNA gyrase = target: T1, E. coli DNA gyrase (Escherichia coli, UniProt P0AES6); assay: DNA gyrase inhibitory (supercoiling) assay; assay type: biochemical
T1 construct: purchased Inspiralis

P. aeruginosa [12] = assay: MIC assay, 2-fold serial dilution in 96-well microtiter plate; assay type: cell-based, Pseudomonas aeuroginosa (ATCC 10145); settings: Pseudomonas aeruginosa, read-out: MIC
Experimental: as §1, §2, §3

B. subtilis [13] = assay: Minimum bactericidal concentration (MBC) assay; assay type: cell-based, Bacillus subtilis
Excerpt: as §4

E. coli [14] = assay: Minimum bactericidal concentration (MBC) assay; assay type: cell-based, Escherichia coli
Excerpt: as §4

A. flavus [15] = assay: Antifungal MIC assay, 2-fold serial dilution; assay type: cell-based, Aspergillus flavus; settings: Aspergillus flavus, read-out: MIC
DHFR E. coli = target: T2, DHFR E. coli (Escherichia coli, UniProt P0ABQ4); assay: DHFR inhibitory assay; assay type: biochemical
T2 construct: purchased Inspiralis
T2 sequence (P0ABQ4 whole entry): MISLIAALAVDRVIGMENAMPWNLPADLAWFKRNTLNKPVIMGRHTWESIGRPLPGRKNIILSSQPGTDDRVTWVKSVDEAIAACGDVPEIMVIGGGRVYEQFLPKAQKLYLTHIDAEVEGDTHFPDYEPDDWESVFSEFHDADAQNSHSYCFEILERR

E. coli [16] = assay: MIC assay, 2-fold serial dilution in 96-well microtiter plate; assay type: cell-based, Escherichia coli (ATCC 11775); settings: Escherichia coli, read-out: MIC
Experimental: as §1, §2, §3

[17] = test system: Gram-positive and Gram-negative bacteria (B. subtilis, S. aureus, E. coli, P. aeruginosa); assay: Disk diffusion, inhibition zones summarised over the tested bacterial strains; settings: over the four tested bacterial strains
[18] = Pseudomonas aeruginosa, read-out: MBC
[19] = Bacillus subtilis, read-out: MBC
[20] = Escherichia coli, read-out: MBC

melting point [°C] | SMILES | Inhibition Zone (IZ) Diameter (S. aureus [1]) | Inhibition Zone (IZ) Diameter (P. aeruginosa [2]) [mm/mL] | Inhibition Zone (IZ) Diameter (B. subtilis [3]) [mm/mL] | Inhibition Zone (IZ) Diameter (E. coli [4]) [mm/mL] | Inhibition Zone (IZ) Diameter (A. flavus [5]) [mm/mL] | Inhibition Zone (IZ) Diameter (C. albicans [6]) [mm] | further results
210 to 212 | c1ccc(-c2cc(-c3ccccc3)n3nc(-c4ccccc4)nc3n2)cc1 [Compound 9a, 2,5,7-Triphenyl-1,2,4-triazolo[1,5-a]pyrimidine] | 14 | 12 | 12 | 14 | 7 | 10 | –
214 to 216 | Clc1ccc(-c2cc(-c3ccccc3)nc3nc(-c4ccccc4)nn23)cc1 [Compound 9b, 7-(4-Chlorophenyl)-2,5-diphenyl-1,2,4-triazolo[1,5-a]pyrimidine] | 23 | 24 | 21 | 23 | 11 | 15 | –
218 to 220 | Cc1ccc(-c2cc(-c3ccccc3)nc3nc(-c4ccccc4)nn23)cc1 [Compound 9c, 2,5-Diphenyl-7-p-tolyl-1,2,4-triazolo[1,5-a]pyrimidine] | 15 | 13 | 11 | 13 | 7 | 10 | –
– | COc1ccc(-c2cc(-c3ccccc3)nc3nc(-c4ccccc4)nn23)cc1 [Compound 9d, 7-(4-Methoxyphenyl)-2,5-diphenyl-1,2,4-triazolo[1,5-a]pyrimidine] | 35 | 34 | 35 | 33 | 27 | 30 | MIC (B. subtilis [7]): 0.038 ± 0.002 µM (≈ 0.0144 µg/mL); MBC (P. aeruginosa [8]; [18]): 0.109 ± 0.007 µM (≈ 0.0412 µg/mL); MIC (S. aureus [9]): 0.039 ± 0.002 µM (≈ 0.0148 µg/mL); MIC (C. albicans [10]): 26.3 ± 1 µM (≈ 9.95 µg/mL); MBC (S. aureus [11]): 0.071 ± 0.004 µM (≈ 0.0269 µg/mL); IC50 (E. coli DNA gyrase): 217 ± 13 nM; MIC (P. aeruginosa [12]): 0.075 ± 0.005 µM (≈ 0.0284 µg/mL); MBC (B. subtilis [13]; [19]): 0.064 ± 0.003 µM (≈ 0.0242 µg/mL); MBC (E. coli [14]; [20]): 0.102 ± 0.007 µM (≈ 0.0386 µg/mL); MIC (A. flavus [15]): 21.5 ± 1 µM (≈ 8.14 µg/mL); IC50 (DHFR E. coli): 5900 ± 200 nM; MIC (E. coli [16]): 0.073 ± 0.005 µM (≈ 0.0276 µg/mL)
260 to 262 | Clc1ccc(-c2cc(-c3ccccc3)n3nc(-c4ccccc4)nc3n2)cc1 [Compound 9e, 5-(4-Chlorophenyl)-2,7-diphenyl-1,2,4-triazolo[1,5-a]pyrimidine] | 12 | 11 | 10 | 12 | 5 | 8 | –
202 to 204 | Clc1ccc(-c2cc(-c3ccc(Cl)cc3)n3nc(-c4ccccc4)nc3n2)cc1 [Compound 9f, 5,7-Bis(4-Chlorophenyl)-2-phenyl-1,2,4-triazolo[1,5-a]pyrimidine] | 15 | 18 | 14 | 15 | 8 | 12 | –
– | COc1ccc(-c2cc(-c3ccc(Cl)cc3)nc3nc(-c4ccccc4)nn23)cc1 [Compound 9h, 5-(4-Chlorophenyl)-7-(4-methoxyphenyl)-2-phenyl-1,2,4-triazolo[1,5-a]pyrimidine] | – | 12 | 9 | 11 | 5 | – | –
– | Cc1ccc(-c2cc(-c3ccccc3)n3nc(-c4ccccc4)nc3n2)cc1 [Compound 9i, 2,7-Diphenyl-5-p-tolyl-1,2,4-triazolo[1,5-a]pyrimidine] | – | 29 | 28 | 30 | 17 | – | –
– | Cc1ccc(-c2cc(-c3ccc(Cl)cc3)n3nc(-c4ccccc4)nc3n2)cc1 [Compound 9j, 7-(4-Chlorophenyl)-2-phenyl-5-p-tolyl-1,2,4-triazolo[1,5-a]-pyrimidine] | – | 20 | 20 | 20 | 10 | – | –
222 to 224 | COc1ccc(-c2cc(-c3ccc(C)cc3)nc3nc(-c4ccccc4)nn23)cc1 [Compound 9l, 7-(4-Methoxyphenyl)-2-phenyl-5-p-tolyl-1,2,4-triazolo[1,5-a]pyrimidine] | 26 | 22 | 23 | 23 | 15 | 17 | –
– | COc1ccc(-c2cc(-c3ccc(Cl)cc3)n3nc(-c4ccccc4)nc3n2)cc1 [Compound 9n, 7-(4-Chlorophenyl)-5-(4-methoxyphenyl)-2-phenyl-1,2,4-triazolo[1,5-a]pyrimidine] | 41 | 40 | 40 | 40 | 32 | 36 | times less effective than ciprofloxacin (MIC) (B. subtilis [7]): 3; MIC (B. subtilis [7]): 0.029 ± 0.002 µM (≈ 0.012 µg/mL); MBC (P. aeruginosa [8]): 0.094 ± 0.006 µM (≈ 0.0388 µg/mL); MBC (P. aeruginosa [8]; [18]): 0.094 µM (≈ 0.0388 µg/mL); MIC (S. aureus [9]): 0.033 ± 0.002 µM (≈ 0.0136 µg/mL); MIC (C. albicans [10]): 21.9 ± 1 µM (≈ 9.04 µg/mL); MBC (S. aureus [11]): 0.065 ± 0.002 µM (≈ 0.0268 µg/mL); IC50 (E. coli DNA gyrase): 190 ± 11 nM; MIC (P. aeruginosa [12]): 0.064 ± 0.005 µM (≈ 0.0264 µg/mL); Inhibition Zone (IZ) Diameter [17]: approximately 40 mm; MBC (B. subtilis [13]): 0.049 ± 0.002 µM (≈ 0.0202 µg/mL); folds less potent than ciprofloxacin as a bactericidal agent (MBC) (B. subtilis [13]): 2.6; MBC (B. subtilis [13]; [19]): 0.049 µM (≈ 0.0202 µg/mL); MBC (E. coli [14]): 0.093 ± 0.006 µM (≈ 0.0384 µg/mL); MBC (E. coli [14]; [20]): 0.093 µM (≈ 0.0384 µg/mL); MIC (A. flavus [15]): 18.5 ± 1 µM (≈ 7.64 µg/mL); IC50 (DHFR E. coli): 4600 ± 200 nM; MIC (E. coli [16]): 0.065 ± 0.004 µM (≈ 0.0268 µg/mL)

SMILES | melting point [°C] | Inhibition Zone (IZ) Diameter (S. aureus [1]) | Inhibition Zone (IZ) Diameter (P. aeruginosa [2]) [mm/mL] | Inhibition Zone (IZ) Diameter (B. subtilis [3]) [mm/mL] | Inhibition Zone (IZ) Diameter (E. coli [4]) [mm/mL] | Inhibition Zone (IZ) Diameter (A. flavus [5]) [mm/mL] | Inhibition Zone (IZ) Diameter (C. albicans [6]) [mm] | further results
Cc1ccc(-c2cc(-c3ccc(Cl)cc3)nc3nc(-c4ccccc4)nn23)cc1 [Compound 9g, 5-(4-Chlorophenyl)-2-phenyl-7-p-tolyl-1,2,4-triazolo[1,5-a]pyrimidine] | 248 to 250 | 20 | 18 | 19 | 20 | 9.0 | 11 | Inhibition Zone (IZ) Diameter [17]: 18–20 mm
Cc1ccc(-c2cc(-c3ccc(C)cc3)n3nc(-c4ccccc4)nc3n2)cc1 [Compound 9k, 2-Phenyl-5,7-di-p-tolyl-1,2,4-triazolo[1,5-a]pyrimidine] | 224 to 226 | 32 | 30 | 32 | 30 | 22 | 25 | Inhibition Zone (IZ) Diameter [17]: 30–32 mm
COc1ccc(-c2cc(-c3ccccc3)n3nc(-c4ccccc4)nc3n2)cc1 [Compound 9m, 5-(4-Methoxyphenyl)-2,7-diphenyl-1,2,4-triazolo[1,5-a]pyrimidine] | 222 to 224 | 32 | 30 | 31 | 30 | 20 | 23 | Inhibition Zone (IZ) Diameter [17]: approximately 30 mm
